In ChEMBL document CHEMBL1136501 (Bioorg Med Chem Lett, 2003):

Tests used:
[1] = target: T1, Sodium-dependent noradrenaline transporter (Homo sapiens, UniProt P23975)
Description: Inhibition of [3H]nisoxetine binding to norepinephrine (NE) transporter

[2] = target: T2, Sodium-dependent serotonin transporter (Homo sapiens, UniProt P31645)
Target sequence in this assay (P31645 whole entry): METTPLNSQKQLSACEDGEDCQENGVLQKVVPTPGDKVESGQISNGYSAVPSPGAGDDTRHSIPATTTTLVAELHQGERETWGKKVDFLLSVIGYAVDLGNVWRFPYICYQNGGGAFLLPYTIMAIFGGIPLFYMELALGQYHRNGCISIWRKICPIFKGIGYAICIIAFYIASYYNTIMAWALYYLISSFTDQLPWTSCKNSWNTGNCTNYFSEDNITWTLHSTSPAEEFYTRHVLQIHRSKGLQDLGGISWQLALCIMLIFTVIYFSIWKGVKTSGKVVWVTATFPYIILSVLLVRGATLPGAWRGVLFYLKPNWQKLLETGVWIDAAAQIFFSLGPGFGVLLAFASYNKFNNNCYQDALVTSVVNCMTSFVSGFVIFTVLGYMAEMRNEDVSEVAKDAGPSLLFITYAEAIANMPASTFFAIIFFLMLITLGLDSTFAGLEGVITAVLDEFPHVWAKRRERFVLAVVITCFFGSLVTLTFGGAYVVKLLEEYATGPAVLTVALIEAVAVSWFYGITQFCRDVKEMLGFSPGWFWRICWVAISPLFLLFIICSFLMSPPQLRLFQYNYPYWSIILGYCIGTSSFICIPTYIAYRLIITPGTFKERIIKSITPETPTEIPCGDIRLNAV
Description: Binding affinity to serotonin transporter, using [3H]citalopram as radioligand

[3] = target: T1, Sodium-dependent noradrenaline transporter; test: Inhibition of [3H]nisoxetine binding to norepinephrine transporter; conditions: concentration not given here
[4] = target: T2, Sodium-dependent serotonin transporter; test: Binding affinity at serotonin transporter, using [3H]citalopram as radioligand at a concentration of 0.1 uM
Target sequence in this assay (P31645 whole entry, looked up): as the sequence (P31645 whole entry) above

[5] = organism: Rattus norvegicus
Description: Inhibition of dopamine uptake into rat synaptosomes

[6] = organism: Rattus norvegicus; remark: listed apart in the source
Description: Inhibition of norepinephrine uptake into rat synaptosomes

[7] = organism: Rattus norvegicus; remark: listed apart in the source
Description: Inhibition of serotonin uptake into rat synaptosomes

T1 sequence (P23975 whole entry): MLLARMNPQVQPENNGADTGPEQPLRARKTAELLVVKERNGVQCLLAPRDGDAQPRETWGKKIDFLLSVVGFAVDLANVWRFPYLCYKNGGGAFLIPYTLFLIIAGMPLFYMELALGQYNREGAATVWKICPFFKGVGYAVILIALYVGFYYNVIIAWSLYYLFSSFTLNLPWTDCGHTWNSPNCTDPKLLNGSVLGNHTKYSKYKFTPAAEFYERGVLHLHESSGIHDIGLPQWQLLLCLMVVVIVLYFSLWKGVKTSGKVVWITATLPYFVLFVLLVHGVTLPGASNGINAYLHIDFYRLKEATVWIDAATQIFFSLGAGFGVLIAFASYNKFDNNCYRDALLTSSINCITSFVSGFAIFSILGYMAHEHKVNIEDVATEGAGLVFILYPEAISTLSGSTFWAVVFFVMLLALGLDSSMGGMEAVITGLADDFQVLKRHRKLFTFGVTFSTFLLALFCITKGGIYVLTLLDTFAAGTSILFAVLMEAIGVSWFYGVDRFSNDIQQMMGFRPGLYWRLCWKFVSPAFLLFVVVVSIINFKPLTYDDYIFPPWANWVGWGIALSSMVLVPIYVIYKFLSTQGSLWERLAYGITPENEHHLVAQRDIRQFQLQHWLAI

CNCCC(Oc1cccc2ccccc12)c1ccccc1C (centres undefined)
Ki [1]: 110 nM | Ki [2]: 2 nM

CNCCC(Oc1cccc2ccccc12)c1ccc(OC)cc1 (centres undefined)
Ki [1]: 74 nM | Ki [2]: 3.5 nM

CNCCCOc1ccc2ccccc2c1
inhibition [3]: 39% | inhibition [4]: 23%

CNCCC(Oc1cccc2ccccc12)c1ccc(C(F)(F)F)cc1 (centres undefined)
inhibition [3]: 55% | Ki [2]: 14.5 nM

CNCCC(Oc1cccc2ccccc12)c1ccc(F)cc1 (centres undefined)
Ki [1]: 42 nM | Ki [2]: 0.95 nM

CNCCC(Oc1cccc2ccccc12)c1ccccc1C(F)(F)F (centres undefined)
inhibition [3]: 38% | Ki [2]: 10 nM

CNCCCOc1cccc2ccccc12
inhibition [3]: 25% | Ki [2]: 75 nM

CNCCC(Oc1cccc2ccccc12)c1ccccc1OC (centres undefined)
inhibition [3]: 56% | Ki [2]: 2.3 nM

CNCCCCCOc1cccc2ccccc12
inhibition [3]: 23% | inhibition [4]: 35.5%

CNCCC(Oc1cccc2ccccc12)c1ccccc1 (centres undefined)
Ki [1]: 20 nM | Ki [2]: 2.4 nM

CNCCC(Oc1cccc2ccccc12)c1cccc(C)c1 (centres undefined)
Ki [1]: 40 nM | Ki [2]: 4 nM

CNCC[C@@H](Oc1ccccc1C)c1ccccc1 [ATOMOXETINE]
Ki [5]: 2000 nM | Ki [6]: 4 nM | Ki [7]: 1500 nM

CNCCC(Oc1cccc2ccccc12)c1ccc(Cl)cc1 (centres undefined)
Ki [1]: 78 nM | Ki [2]: 3.8 nM

CNCCC(Oc1cccc2ccccc12)c1nccs1 (centres undefined)
Ki [1]: 55 nM | Ki [2]: 6.4 nM

CNCCOc1cccc2ccccc12
inhibition [3]: 17% | inhibition [4]: 2%

CNCCC(Oc1cccc2ccccc12)c1ccc(Br)cc1 (centres undefined)
Ki [1]: 160 nM | Ki [2]: 4.1 nM

CNCCC(Oc1cccc2ccccc12)c1cccc(C(F)(F)F)c1 (centres undefined)
Ki [1]: 70 nM | Ki [2]: 19 nM

CNCCCCOc1cccc2ccccc12
inhibition [3]: 25.5% | Ki [2]: 31 nM

CNCCC(Oc1cccc2ccccc12)c1cccc(Br)c1 (centres undefined)
Ki [1]: 67 nM | Ki [2]: 7.6 nM

CNCCC(Oc1cccc2ccccc12)c1cccc(OC)c1 (centres undefined)
Ki [1]: 81 nM | Ki [2]: 2.2 nM

CNCCC(Oc1cccc2ccccc12)c1ccc(C)cc1 (centres undefined)
Ki [1]: 36 nM | Ki [2]: 2.1 nM

CNCCC(Oc1cccc2ccccc12)c1ccsc1 (centres undefined)
Ki [1]: 21 nM | Ki [2]: 1.1 nM

CNCCCCOc1ccc2ccccc2c1
inhibition [3]: 17% | inhibition [4]: 32%

CNCCC(Oc1cccc2ccccc12)c1ccco1 (centres undefined)
Ki [1]: 20 nM | Ki [2]: 0.7 nM
